The values below come from publication PMC4410085 (Bioorganic & medicinal chemistry, 2015).

The test system of assay [1] is A-10 cells. Description: Loss of cellular microtubules, indirect immunofluorescence. The assay is classed as cell-based. The conditions noted are these: result in words.
For assay [2], the system named is Bovine brain tubulin. Put plainly: Tubulin assembly assay. It is filed as biochemical. The settings on record: read-out: Inhibition tubulin assembly IC50; ± SD; purified bovine brain tubulin.
For assay [3], the target named is PDGFR-β (Homo sapiens, UniProt P09619). Description: Phosphotyrosine ELISA cytoblot, PDGFR-β. It is filed as cell-based. The settings on record: PDGFR-β expressing cells, versus sunitinib.

SMILES strings stand for the structures.

Sequence of PDGFR-β (P09619 33-1106): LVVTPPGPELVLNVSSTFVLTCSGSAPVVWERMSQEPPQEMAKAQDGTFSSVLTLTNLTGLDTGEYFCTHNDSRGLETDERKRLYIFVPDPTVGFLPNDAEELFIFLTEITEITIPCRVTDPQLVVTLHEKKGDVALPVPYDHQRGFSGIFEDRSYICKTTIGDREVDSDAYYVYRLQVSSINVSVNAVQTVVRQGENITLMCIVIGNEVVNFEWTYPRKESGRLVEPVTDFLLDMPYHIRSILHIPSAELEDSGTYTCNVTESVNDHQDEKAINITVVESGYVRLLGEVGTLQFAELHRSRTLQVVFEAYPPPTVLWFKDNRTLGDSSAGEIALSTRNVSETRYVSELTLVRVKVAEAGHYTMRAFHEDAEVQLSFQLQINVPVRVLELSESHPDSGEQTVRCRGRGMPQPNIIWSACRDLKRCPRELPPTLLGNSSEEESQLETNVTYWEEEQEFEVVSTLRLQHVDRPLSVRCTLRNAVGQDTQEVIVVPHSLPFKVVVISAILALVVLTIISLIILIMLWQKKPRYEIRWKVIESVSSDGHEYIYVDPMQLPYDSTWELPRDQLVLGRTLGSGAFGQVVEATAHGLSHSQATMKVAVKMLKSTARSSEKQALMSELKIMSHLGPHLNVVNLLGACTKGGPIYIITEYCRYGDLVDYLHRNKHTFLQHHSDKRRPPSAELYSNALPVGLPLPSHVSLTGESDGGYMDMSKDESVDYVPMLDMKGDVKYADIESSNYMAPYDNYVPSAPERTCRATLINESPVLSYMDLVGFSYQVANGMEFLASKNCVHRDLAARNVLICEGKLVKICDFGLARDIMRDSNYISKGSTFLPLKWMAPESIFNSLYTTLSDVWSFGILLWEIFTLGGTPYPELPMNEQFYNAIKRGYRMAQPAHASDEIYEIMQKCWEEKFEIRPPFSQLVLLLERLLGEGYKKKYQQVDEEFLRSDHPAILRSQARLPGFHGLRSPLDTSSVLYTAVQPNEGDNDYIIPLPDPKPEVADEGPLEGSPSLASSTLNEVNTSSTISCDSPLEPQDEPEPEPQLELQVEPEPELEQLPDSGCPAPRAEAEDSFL

Regarding `COc1ccc2c(c1)CCCN2c1nc(C)nc2oc(C)cc12` [Compound 10, 4-(6-methoxy-3,4-dihydroquinolin-1(2H)-yl)-2,6-dimethylfuro[2,3-d]pyrimidine], the “effect on cellular microtubules” value in assay [1] is “dose-dependent loss of cellular microtubules”. On to `COc1ccc(N(C)c2nc(C)nc3oc(C)cc23)c(OC)c1` [Compound 2, N-(2,4-dimethoxyphenyl)-N,2,6-trimethylfuro[2,3-d]pyrimidin-4-amine], for which the “effect on cellular microtubules” value in assay [1] is on record as “dose-dependent loss of cellular microtubules”. On to `COc1ccc(/C=C\c2cc(OC)c(OC)c(OC)c2)cc1O` [CA-4], for which the IC50 in assay [2] is 1000 ± 90 nM. Regarding `COc1ccc2c(c1)CCN2c1nc(C)nc2oc(C)cc12` [Compound 8, 4-(5-methoxyindolin-1-yl)-2,6-dimethylfuro[2,3-d]pyrimidine], the “effect on cellular microtubules” value in assay [1] is listed as “no effect on cellular microtubules”. For `Cc1nc(N(C)c2ccc3c(c2)CCO3)c2cc(C)oc2n1` [Compound 6, N-(2,3-dihydro-1-benzofuran-5-yl)-N,2,6-trimethylfuro[2,3-d]pyrimidin-4-amine], the “fold better than sunitinib, PDGFR-β” value in assay [3] was “about 4 fold”. Moreover, in assay [1], the “effect on cellular microtubules” value is reported as “dose-dependent loss of cellular microtubules”.

As to `COc1ccc(N(C)c2nc(C)nc3oc(C)cc23)cc1OC` [Compound 3, N-(3,4-dimethoxyphenyl)-N,2,6-trimethylfuro[2,3-d]pyrimidin-4-amine], in assay [1], the “effect on cellular microtubules” value was “dose-dependent loss of cellular microtubules”. In the case of `Cc1nc(N(C)c2ccc3occc3c2)c2cc(C)oc2n1` [Compound 7, N-1-benzofuran-5-yl-N,2,6-trimethylfuro[2,3-d]pyrimidin-4-amine], the “fold better than sunitinib, PDGFR-β” value in assay [3] is reported as “about 4 fold”. The “effect on cellular microtubules” value in assay [1] is recorded as “dose-dependent loss of cellular microtubules”.

With `CCOc1ccc(N(C)c2nc(C)nc3oc(C)cc23)cc1` [Compound 12, N-(4-ethoxyphenyl)-N,2,6-trimethylfuro[2,3-d]pyrimidin-4-amine], in assay [1], the “effect on cellular microtubules” value is listed as “dose-dependent loss of cellular microtubules”.
